Source: patent US11369654B2, “Application method of Dendrobium candidum in preparing medicine for treating hypertension” (Hangzhou Danhe Pharmaceutical CO., Ltd., priority 2017, dated 2022)
Values joined by “and” are separate entries in the source; they are usually repeats but may differ in a detail not shown here. Equal values may be shown once.

How the values were obtained:
Type in all cases: in vivo, rat
[1] = tested on: Spontaneously Hypertensive Rats (SHR); assay: Experiment 5: antihypertensive effect of the sample of Example 2 on SHR
Description: (§1) Rats: Spontaneously Hypertensive Rats (SHR), Wistar rats are used as normal controls.
Rat Blood Pressure Measurement: BP-98A Non-invasive Tail Artery Blood Pressure Meter, Japan Soft Rotation Co., Ltd
(§2) Group therapy is described in the following description. Blood pressure and body weight are measured and grouped after one week of adaptive feeding in all rats. […] Eight rats in each group are treated for 2 weeks.
(§3) The following description discussed with the blood pressure measurement. The rats are preheated at 38° C. for 5-10 minutes to avoid blood flow in the tail of the rat. The blood pressure of the rats is measured three times in a waking and quiet state, and the average value of three times was used as the blood pressure of the rats. Blood pressure is measured twice a week, once 2 hours after administration and once 24 hours after administration, to observe the immediate antihypertensive effect and after 24 hours antihypertensive effect (and the peak-to-valley ratio).
(§4) The following description discusses with the trough-peak ratio calculation of depressurization amplitude. The difference of blood pressure before treatment minus 24 hours after administration is the trough of the range of blood pressure reduction, which is the lowest point before the next administration; the difference of blood pressure before treatment and 2 hours after administration is the peak value of blood pressure reduction, that is, the maximum point of blood pressure reduction after administration. Valley value of depressurization amplitude divided by peak value of depressurization amplitude is equal to valley-peak ratio of depressurization amplitude.

[2] = tested on: Spontaneously Hypertensive Rats (SHR); assay: Experiment 4: antihypertensive effect of the sample of Example 1 on SHR
Description: Rats: Spontaneously Hypertensive Rats (SHR), Wistar rats were used as normal controls.
(§5) Rat Blood Pressure Measurement: BP-98A Non-invasive Tail Artery Blood Pressure Meter, Japan Soft Rotation Co., Ltd.
as §2
as §3, with “describes” for “discussed with”, “is” for “was”
as §4, with “discusses” for “discusses with”

[3] = tested on: Spontaneously Hypertensive Rats (SHR); assay: Experiment 1: antihypertensive effect of Dendrobium officinale extraction methods, tail artery blood pressure
Description: as §1, §5
Group therapy is described in the following description. Blood pressure and body weight are measured and grouped after one week of adaptive feeding in all rats. The SHR rats are divided into the water extracting group after crushing and flattening, the water extracting group after crushing, and the water extracting group after grinding into powder, all Chinese medicine groups are given 0.8 g/kg body weight of crude drug, and the amlodipine besylate tablets 0.5 mg/kg body weight are given intragastrically in amlodipine group, the hypertensive model control group is given with the same amount of saline, while the normal control group is given with the same amount of saline. Eight rats in each group were treated for 2 weeks. Blood pressure measurement: The rats are preheated at 38° C. for 5-10 minutes to avoid blood flow in the tail of the rat. The blood pressure of the rats is measured three times in a waking and quiet state, and the average value of the three measurement times is used as the blood pressure of the rats. Blood pressure is measured once a week and once 2 hours after administration.

[4] = 2 h after administration, treatment for 1 week, medium dose 0.8 g/kg crude drug, amlodipine 0.5 mg/kg
[5] = 2 h after administration, treatment for 2 weeks, medium dose 0.8 g/kg crude drug, amlodipine 0.5 mg/kg
[6] = 24 h after administration, treatment for 1 week, medium dose 0.8 g/kg crude drug, amlodipine 0.5 mg/kg
[7] = 24 h after administration, treatment for 2 weeks, medium dose 0.8 g/kg crude drug, amlodipine 0.5 mg/kg
[8] = before treatment, medium dose group 0.8 g/kg crude drug, amlodipine group 0.5 mg/kg
[9] = treatment for 1 week, medium dose 0.8 g/kg crude drug, amlodipine 0.5 mg/kg
[10] = treatment for 2 weeks, medium dose 0.8 g/kg crude drug, amlodipine 0.5 mg/kg
[11] = 2 h after administration, treatment for 1 week, 0.8 g/kg crude drug, amlodipine 0.5 mg/kg
[12] = 2 h after administration, treatment for 2 weeks, 0.8 g/kg crude drug, amlodipine 0.5 mg/kg
[13] = 2 h after administration, treatment for 2 weeks, 0.8 g/kg crude drug, amlodipine 0.5 mg/kg, listed as amlodipine

Question: Which results are given for `CCOC(=O)C1=C(COCCN)NC(C)=C(C(=O)OC)C1c1ccccc1Cl` (stereo not shown) [Amlodipine, amlodipine besylate]?
Answer: diastolic blood pressure [1, 4]: 146.8 mmHg; systolic blood pressure [1, 4]: 178.2 mmHg; diastolic blood pressure [1, 5]: 148.5 mmHg; systolic blood pressure [1, 5]: 180.5 mmHg; diastolic blood pressure [1, 6]: 157.1 mmHg; systolic blood pressure [1, 6]: 203.5 mmHg; diastolic blood pressure [1, 7]: 157.6 mmHg; systolic blood pressure [1, 7]: 205.6 mmHg; diastolic blood pressure [1, 8]: 159.6 mmHg; systolic blood pressure [1, 8]: 212.7 mmHg and 212.7 ± 6.87 mmHg; 2-hour hypotensive amplitude (peak of systolic blood pressure reduction) [1, 9]: 34.5 mmHg; 24-hour hypotensive amplitude (trough of systolic blood pressure reduction) [1, 9]: 9.2 mmHg; valley-peak ratio of Systolic Blood Pressure Reduction [1, 9]: 0.27; 2-hour hypotensive amplitude (peak of systolic blood pressure reduction) [1, 10]: 32.2 mmHg; 24-hour hypotensive amplitude (trough of systolic blood pressure reduction) [1, 10]: 7.1 mmHg; valley-peak ratio of Systolic Blood Pressure Reduction [1, 10]: 0.22; diastolic blood pressure [2, 4]: 145.9 mmHg; systolic blood pressure [2, 4]: 176.7 ± 7.42 mmHg; diastolic blood pressure [2, 5]: 144.8 mmHg; systolic blood pressure [2, 5]: 178.7 ± 5.64 mmHg; diastolic blood pressure [2, 6]: 156.5 mmHg; systolic blood pressure [2, 6]: 202.6 mmHg; diastolic blood pressure [2, 7]: 157.3 mmHg; systolic blood pressure [2, 7]: 204.9 mmHg; diastolic blood pressure [2, 8]: 158.2 mmHg; systolic blood pressure [2, 8]: 211.7 ± 7.57 mmHg and 211.7 mmHg and 211.7 ± 17.57 mmHg; 2-hour hypotensive amplitude (peak of systolic blood pressure reduction) [2, 9]: 35.0 mmHg; 24-hour hypotensive amplitude (trough of systolic blood pressure reduction) [2, 9]: 9.1 mmHg; valley-peak ratio of Systolic Blood Pressure Reduction [2, 9]: 0.26; 2-hour hypotensive amplitude (peak of systolic blood pressure reduction) [2, 10]: 33.0 mmHg; 24-hour hypotensive amplitude (trough of systolic blood pressure reduction) [2, 10]: 6.8 mmHg; valley-peak ratio of Systolic Blood Pressure Reduction [2, 10]: 0.21; diastolic blood pressure [3, 11]: 142.6 ± 5.78 mmHg; systolic blood pressure [3, 11]: 173.8 ± 5.26 mmHg; diastolic blood pressure [3, 12]: 143.7 ± 4.28 mmHg; systolic blood pressure [3, 12]: 175.5 ± 4.48 mmHg; diastolic blood pressure [3, 13]: 143.7±4.28 mmHg; systolic blood pressure [3, 13]: 175.5±4.48 mmHg; diastolic blood pressure ([3]; before treatment): 157.4 ± 5.67 mmHg; systolic blood pressure ([3]; before treatment): 206.3 ± 6.26 mmHg
